The source of these data is BindingDB's records for doi:10.1021/jm021084k (2003).

For one test, the target named is Histamine H3 receptor (Cavia porcellus, UniProt Q9JI35). As to the kind of experiment: Potency at histamine H3 receptor subtype, was tested on guinea pig right ileum.
A further test deals with Histamine H1 receptor (Cavia porcellus, UniProt P31389). The test is described as follows: Potency at histamine H1 receptor subtype, was tested on guinea pig right ileum.
A further test has as its target Histamine H2 receptor (Cavia porcellus, UniProt P47747). The test is described as follows: Potency at histamine H2 receptor subtype, was tested on guinea pig right atrium.

pKd: −log10 of the molar value.

Chain of Histamine H2 receptor (P47747 whole entry): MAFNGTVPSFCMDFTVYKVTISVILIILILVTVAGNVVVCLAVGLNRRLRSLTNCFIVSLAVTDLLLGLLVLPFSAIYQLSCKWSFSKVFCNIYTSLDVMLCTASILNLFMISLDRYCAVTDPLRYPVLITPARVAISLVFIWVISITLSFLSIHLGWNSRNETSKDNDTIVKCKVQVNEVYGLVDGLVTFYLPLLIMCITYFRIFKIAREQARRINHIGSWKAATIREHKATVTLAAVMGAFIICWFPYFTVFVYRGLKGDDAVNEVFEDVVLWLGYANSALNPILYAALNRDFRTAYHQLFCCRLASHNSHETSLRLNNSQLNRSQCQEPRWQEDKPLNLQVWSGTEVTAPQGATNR
Chain of Histamine H1 receptor (P31389 whole entry): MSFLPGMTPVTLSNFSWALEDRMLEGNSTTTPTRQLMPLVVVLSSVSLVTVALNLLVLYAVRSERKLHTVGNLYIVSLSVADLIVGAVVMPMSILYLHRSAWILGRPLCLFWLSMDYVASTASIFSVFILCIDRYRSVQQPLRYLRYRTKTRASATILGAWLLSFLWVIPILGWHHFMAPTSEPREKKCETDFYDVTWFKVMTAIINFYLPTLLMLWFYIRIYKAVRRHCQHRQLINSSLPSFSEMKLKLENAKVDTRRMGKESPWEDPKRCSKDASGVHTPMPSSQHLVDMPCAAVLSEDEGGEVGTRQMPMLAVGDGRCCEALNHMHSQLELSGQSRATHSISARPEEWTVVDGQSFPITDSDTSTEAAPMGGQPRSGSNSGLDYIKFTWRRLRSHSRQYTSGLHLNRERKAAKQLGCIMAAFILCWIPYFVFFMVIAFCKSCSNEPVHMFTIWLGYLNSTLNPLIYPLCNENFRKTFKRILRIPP
Chain of Histamine H3 receptor (Q9JI35 whole entry): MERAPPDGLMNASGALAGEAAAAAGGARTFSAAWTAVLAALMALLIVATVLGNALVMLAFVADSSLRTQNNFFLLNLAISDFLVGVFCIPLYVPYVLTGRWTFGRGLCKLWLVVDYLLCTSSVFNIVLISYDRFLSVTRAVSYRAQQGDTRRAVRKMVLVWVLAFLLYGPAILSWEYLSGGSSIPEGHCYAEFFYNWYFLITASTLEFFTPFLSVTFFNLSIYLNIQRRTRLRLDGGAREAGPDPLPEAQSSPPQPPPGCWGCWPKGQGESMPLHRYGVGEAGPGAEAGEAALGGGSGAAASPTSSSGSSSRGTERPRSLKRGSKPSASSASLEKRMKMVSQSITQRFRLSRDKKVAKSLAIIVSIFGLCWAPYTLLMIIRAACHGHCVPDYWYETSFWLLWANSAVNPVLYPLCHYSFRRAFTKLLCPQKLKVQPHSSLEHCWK

In the case of `CC(N=O)c1ccc(OCc2ccc(CN3CCCCC3)cc2)cc1` (stereo not drawn) [1-[4-(4-Piperidin-1-ylmethyl-benzyloxy)-phenyl]-ethanone oxime], the pKd (usually the Kd on a negative log10 scale, so that one unit is a factor of ten) at Histamine H3 receptor is 7.07; on Histamine H1 receptor, 5.10; on Histamine H2 receptor it was 4.85.
